Measured values published in patent publication US11753404B2, “Aminothiazole compounds as c-Kit inhibitors” (Ariad Pharmaceuticals, Inc., priority 2016, dated 2023).

Experiments:
[1] = target: T1, BAF3 FL KIT EX11DEL/T670I (Homo sapiens, UniProt P10721, T670I, cells depend on it, form not given); experiment: c-Kit assay: Ba/F3 KIT mutant cell viability (Cell Titer-Glo, 72 hours); assay type: cell-based; conditions: viability after 72 hours
T1 construct: BAF3 FL KIT EX11DEL/T670I
Method in brief: (§1)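 Ba/F3 cells made IL-3-independent by lentiviral KIT mutant expression, grown in RPMI/10% FBS at 37 °C. Eight 4-fold compound concentrations (10 μM to 0.61 nM) for 72 h; Cell Titer-Glo viability normalised to vehicle, IC50 from dose–response curves.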

[2] = target: T2, BAF3 FL KIT EX11DEL/V654A (Homo sapiens, UniProt P10721, V654A, cells depend on it, form not given); experiment: as above; assay type: cell-based; conditions: viability after 72 hours
T2 construct: BAF3 FL KIT EX11DEL/V654A
T2 sequence (P10721 with tags, fused parts or gaps DEL557-558/V654A, form open): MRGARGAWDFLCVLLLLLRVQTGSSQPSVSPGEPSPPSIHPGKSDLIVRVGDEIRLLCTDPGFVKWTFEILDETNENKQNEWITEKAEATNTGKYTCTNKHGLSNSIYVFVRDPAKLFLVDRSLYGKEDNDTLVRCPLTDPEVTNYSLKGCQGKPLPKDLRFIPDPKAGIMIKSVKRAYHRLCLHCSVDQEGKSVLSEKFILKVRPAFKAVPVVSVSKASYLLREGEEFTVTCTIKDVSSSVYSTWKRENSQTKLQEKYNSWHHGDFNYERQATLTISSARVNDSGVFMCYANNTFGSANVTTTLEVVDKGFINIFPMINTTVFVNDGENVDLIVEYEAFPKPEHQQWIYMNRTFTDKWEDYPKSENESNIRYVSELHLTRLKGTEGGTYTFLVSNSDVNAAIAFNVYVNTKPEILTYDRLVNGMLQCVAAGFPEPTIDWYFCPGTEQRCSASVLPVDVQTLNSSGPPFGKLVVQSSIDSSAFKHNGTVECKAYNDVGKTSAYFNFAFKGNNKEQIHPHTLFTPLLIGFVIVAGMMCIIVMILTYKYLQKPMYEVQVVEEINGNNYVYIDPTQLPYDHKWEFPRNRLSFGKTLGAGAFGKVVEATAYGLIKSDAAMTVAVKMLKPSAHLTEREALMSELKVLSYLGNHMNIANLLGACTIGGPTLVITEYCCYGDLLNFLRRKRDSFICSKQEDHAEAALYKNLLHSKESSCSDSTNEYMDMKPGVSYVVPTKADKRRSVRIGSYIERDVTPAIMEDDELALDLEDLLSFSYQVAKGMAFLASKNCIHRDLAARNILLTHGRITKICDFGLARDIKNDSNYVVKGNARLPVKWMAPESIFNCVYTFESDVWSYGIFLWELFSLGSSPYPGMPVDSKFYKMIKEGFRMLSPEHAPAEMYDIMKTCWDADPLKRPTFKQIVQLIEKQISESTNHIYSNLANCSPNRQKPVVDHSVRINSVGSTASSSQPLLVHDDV
Method in brief: as §1

[3] = target: T3, BAF3 FL KIT EX11DEL/D816H (Homo sapiens, UniProt P10721, D816H, cells depend on it, form not given); experiment: as above; assay type: cell-based; conditions: viability after 72 hours
T3 construct: BAF3 FL KIT EX11DEL/D816H
T3 sequence (P10721 with tags, fused parts or gaps DEL557-558/D816H, form open): as the sequence (P10721 with tags, fused parts or gaps DEL557-558/V654A, form open) above, with A652V, D814H counted along it
Method in brief: as §1

[4] = target: T4, BAF3 FL KIT EX11DEL (Homo sapiens, UniProt P10721, cells depend on it, form not given); experiment: as above; assay type: cell-based; conditions: viability after 72 hours
T4 construct: BAF3 FL KIT EX11DEL
T4 sequence (P10721 with tags, fused parts or gaps DEL557-558): as the sequence (P10721 with tags, fused parts or gaps DEL557-558/V654A, form open) above, with A652V counted along it
Method in brief: as §1

[5] = tested on: gastrointestinal stromal tumors (GIST); conditions: third line therapy; cited from earlier work

T1 sequence (P10721 with tags, fused parts or gaps DEL557-558/T670I, form open): as the sequence (P10721 with tags, fused parts or gaps DEL557-558/V654A, form open) above, with A652V, T668I counted along it

Compound | GI50 [1] | GI50 [2] | GI50 [3] | GI50 [4] | ORR [5] | median PFS [5]
Cc1ccc(C(=O)Nc2ccc(CN3CCN(C)CC3)c(C(F)(F)F)c2)cc1C#Cc1cnc(NC(=O)C2CC2)s1 [I-50, 3-((2-(cyclopropanecarboxamido)thiazol-5-yl)ethynyl)-4-methyl-N-(4-((4-methylpiperazin-1-yl)methyl)-3-(trifluoromethyl)phenyl)benzamide] | 10 to 50 nM | 100 to 10000 nM | 10 to 50 nM | 10 to 50 nM | – | –
CC(=O)Nc1ncc(C#Cc2cc(C(=O)Nc3cc(C(F)(F)F)ccn3)ccc2C)s1 [I-51, 3-((2-acetamidothiazol-5-yl)ethynyl)-4-methyl-N-(4-(trifluoromethyl)pyridin-2-yl)benzamide] | 10 to 50 nM | 10 to 50 nM | 10 to 50 nM | < 10 nM | – | –
Cc1ccc(C(=O)Nc2cc(C(F)(F)F)ccn2)cc1C#Cc1cnc(NC(=O)C(C)(C)C)s1 [I-52, 4-methyl-3-((2-pivalamidothiazol-5-yl)ethynyl)-N-(4-(trifluoromethyl)pyridin-2-yl)benzamide] | 100 to 10000 nM | 100 to 10000 nM | 100 to 10000 nM | 10 to 50 nM | – | –
COCCN(C)C(=O)Nc1ncc(C#Cc2cc(NC(=O)c3cc(C(F)(F)F)ccn3)ccc2C)s1 [I-54, N-(3-((2-(3-(2-methoxyethyl)-3-methylureido)thiazol-5-yl)ethynyl)-4-methylphenyl)-4-(trifluoromethyl)picolinamide] | 10 to 50 nM | 10 to 50 nM | 10 to 50 nM | < 10 nM | – | –
Cc1ccc(NC(=O)c2cccc(OC(F)(F)F)c2)cc1C#Cc1cnc(NC(=O)N(C)C)s1 [I-56, N-(3-((2-(3,3-dimethylureido)thiazol-5-yl)ethynyl)-4-methylphenyl)-3-(trifluoromethoxy)benzamide] | 10 to 50 nM | 10 to 50 nM | 10 to 50 nM | < 10 nM | – | –
CNC(=O)Nc1ncc(C#Cc2cc(NC(=O)c3cc(C(F)(F)F)ccn3)ccc2C)s1 [I-57, N-(4-methyl-3-((2-(3-methylureido)thiazol-5-yl)ethynyl)phenyl)-4-(trifluoromethyl)picolinamide] | 10 to 50 nM | < 10 nM | < 10 nM | < 10 nM | – | –
Cc1ccc(NC(=O)c2cc(C(F)(F)F)ccn2)cc1C#Cc1cnc(NC(=O)N(C)CCN(C)C)s1 [I-58, N-(3-((2-(3-(2-(dimethylamino)ethyl)-3-methylureido)thiazol-5-yl)ethynyl)-4-methylphenyl)-4-(trifluoromethyl)picolinamide] | 100 to 10000 nM | 50 to 100 nM | 50 to 100 nM | < 10 nM | – | –
CCN(CC)CCN(C)C(=O)Nc1ncc(C#Cc2cc(NC(=O)c3cc(C(F)(F)F)ccn3)ccc2C)s1 [I-59, N-(3-((2-(3-(2-(diethylamino)ethyl)-3-methylureido)thiazol-5-yl)ethynyl)-4-methylphenyl)-4-(trifluoromethyl)picolinamide] | 100 to 10000 nM | 100 to 10000 nM | 50 to 100 nM | 10 to 50 nM | – | –
Cc1ccc(NC(=O)c2cc(C(F)(F)F)ccn2)cc1C#Cc1cnc(NC(=O)N(C)CCO)s1 [I-60, N-(3-((2-(3-(2-hydroxyethyl)-3-methylureido)thiazol-5-yl)ethynyl)-4-methylphenyl)-4-(trifluoromethyl)picolinamide] | 50 to 100 nM | 10 to 50 nM | 10 to 50 nM | < 10 nM | – | –
COCCN(C)C(=O)Nc1ncc(C#Cc2cccc(NC(=O)c3cc(C(F)(F)F)ccn3)c2)s1 [I-61, N-(3-((2-(3-(2-methoxyethyl)-3-methylureido)thiazol-5-yl)ethynyl)phenyl)-4-(trifluoromethyl)picolinamide] | 10 to 50 nM | 10 to 50 nM | 10 to 50 nM | < 10 nM | – | –
COCCN(C)C(=O)Nc1ncc(C#Cc2cc(NC(=O)c3cc(C(F)(F)F)ccn3)ccc2F)s1 [I-62, N-(4-fluoro-3-((2-(3-(2-methoxyethyl)-3-methylureido)thiazol-5-yl)ethynyl)phenyl)-4-(trifluoromethyl)picolinamide] | < 10 nM | 10 to 50 nM | 10 to 50 nM | < 10 nM | – | –
CNC(=O)c1cc(Oc2ccc(NC(=O)Nc3ccc(Cl)c(C(F)(F)F)c3)c(F)c2)ccn1 [Regorafenib] | – | – | – | – | 4.5% | 4.8 months
